Legend:
[1] = MDSC of sparsentan and spray dried sparsentan dispersions; type: physicochemical
Description: MDSC was performed using a TA Instruments Q200 differential scanning calorimeter equipped with a TA instruments Refrigerated Cooling System 90. MDSC was used to measure glass transition temperature (Tg), cold crystallization (Tc), defined as a crystallization event at a temperature lower than the melt temperature, and melting temperature (Tm). Samples were placed in non-hermetic aluminum pans and heated at a constant rate of 2.0° C./min over a 25-200° C. temperature range. The system was purged by nitrogen flow at 50 mL/min to ensure inert atmosphere through the course of measurement.
Thermal properties, melting temperature (Tm), glass transition temperature (Tg), and crystallization temperature (Tc) of sparsentan was measured by MDSC. The Tg was measured via a melt-quench technique, heating past its melting temperature and rapidly cooling to trap the molten material in an amorphous state. The resulting sample was analyzed by MDSC and a Tg of 42° C. was determined (FIG. 4).

[2] = Pharmacokinetics of crystalline and amorphous sparsentan formulations, single IV or PO dose (Example 4); type: in vivo, male Sprague Dawley rats; settings: for % F (dose-normalized AUC0-24 hr PO/IV): vs IV crystalline sparsentan 1 mg/kg
Description: Sparsentan was administered intravenously as a bolus injection (“IV”) or orally (“PO”) to male Sprague Dawley rats in a single dose, as described in Table 11. Four sparsentan formulations were tested: crystalline sparsentan (“Crystalline Sp”); spray dried dispersion particles formed from a 50:50 mixture of sparsentan and polyvinylpyrrolidone-vinyl acetate copolymer (“50:50 Sp:PVP-VA SDD”); spray dried dispersion particles formed from a 50:50 mixture of sparsentan and hydroxypropyl methylcellulose (“50:50 Sp:HPMC E3LV SDD”); and spray dried dispersion particles formed from a 50:50 mixture of sparsentan and hypromellose acetate succinate HG (“50:50 Sp: HPMCAS-H SDD”). Formulations were administered in a vehicle comprised of either a mixture of PEG400:ethanol:sterile water (30:30:40 v/v/v) (“A”) or a mixture of 0.5% Methocel A4M, 0.1% Tween-80 in purified water (“B”).
Blood samples were collected at 0.083 (Group 1 only), 0.25, 0.5, 1, 2, 4, 6, 8, and 24 hours post dose. Blood was collected into tubes containing K2EDTA and centrifuged, and resulting plasma samples were obtained. For each group, the following PK parameters were determined: maximum observed plasma concentration (Cmax), time of maximum observed plasma concentration (Tmax), and area under the plasma concentration-time curve (AUC). AUC from time 0 to 24 hours (AUC0-24 hr) was calculated for all groups with at least three consecutive quantifiable concentrations. For the IV dose, extrapolated null concentration (C0) was calculated and used as Cmax at time zero. For the oral doses, extrapolated value at time zero was assigned as 0.0 ng/m L. The AUC based on actual collection time point was from 0.083 to 24 hours for IV group and from 0.25 to 24 hour for PO group. Absolute bioavailability evaluation was determined as “% F” between single dose IV and oral dose, calculated as follows:
% F=Mean Dose Normalized AUC0-24 hr(PO)/Mean Dose Normalized AUC0-24 hr (IV).

[3] = Pharmacokinetics of modified release sparsentan formulations, PO (Example 5); type: in vivo, male Sprague Dawley rats; settings: male rats
Description: Sparsentan was administered orally (“PO”) to male Sprague Dawley rats in a single or twice-a-day dose, as described in Table 14. Formulations were administered in a vehicle comprised of a mixture of 0.5% methylcellulose 4000 cps and 0.25% Tween 80 in distilled water. All animals were fasted overnight through approximately 4 hours post-dose. Animals receiving Formulation #2 were not fasted for the second dose administration.
Blood (approximately 0.3 mL) was collected from a jugular vein from each animal via syringe and needle and transferred into tubes containing K2EDTA at approximately 0.5, 1, 2, 4, 8 (prior to second dose for Group 2), 10, 12, and 24 hours post-dose. Another vein may be used as an alternative blood collection site. For each group, the following PK parameters were determined: maximum observed plasma concentration (Cmax), time of maximum observed plasma concentration (Tmax), and area under the plasma concentration-time curve (AUC). AUC from time 0 to 24 hours (AUC0-24 hr) was calculated for all groups with at least three consecutive quantifiable concentrations.

Tg ([1]; melt-quench technique) [°C] | physical stability ([1]; modulated ramp up to 200° C.) | % F (dose-normalized AUC0-24 hr PO/IV) ([2]; Group 2: PO 20 mg/kg) [%] | % F (dose-normalized AUC0-24 hr PO/IV) ([2]; Group 3: PO 60 mg/kg) [%] | Cmax increase with increasing dose (dose proportionality) ([2]; oral doses 20 and 60 mg/kg, male rats) | Cmax ([3]; Sprague Dawley, rat, 60 mg/kg/day, plasma, dose mg/kg/day #1 60, #2 60 (30 x 2, from first dose), #3 38, #4 28.8, #5 30, #6 28.6) [µg/mL] | AUC ([3]; Sprague Dawley, rat, 60 mg/kg/day, plasma, dose mg/kg/day #1 60, #2 60 (total dose), #3 38, #4 28.8, #5 30, #6 28.6, read-out: AUC0.5-24 hr) [µg·h/mL] | Tmax ([3]; Sprague Dawley, rat, plasma, 60 mg/kg/day, median, dose mg/kg/day #1 60, #2 60 (30 x 2, from first dose), #3 38, #4 28.8, #5 30, #6 28.6) [h] | Cmax/Dose ([3]; dose-normalized, #2 from first dose) [kg·ng/mL/mg] | AUC0.5-24 hr/Dose ([3]; dose-normalized, #2 from the total dose) [kg·ng·h/mL/mg] | Compound
42 | stable as a neat amorphous form | – | – | – | – | – | – | – | – | CCCCC1=NC2(CCCC2)C(=O)N1Cc1ccc(-c2ccccc2S(=O)(=O)Nc2noc(C)c2C)c(COCC)c1 [Sparsentan, 2-[4-[(2-butyl-4-oxo-1,3-diazaspiro[4.4]non-1-en-3-yl)methyl]-2-(ethoxymethyl)phenyl]-N-(4,5-dimethyl-1,2-oxazol-3-yl)benzenesulfonamide]
– | – | 50.1 | 55.2 | approximately dose proportional | 54.6 | 311 | 4 | 909 | 5189 | CCCCC1=NC2(CCCC2)C(=O)N1Cc1ccc(-c2ccccc2S(=O)(=O)Nc2noc(C)c2C)c(COCC)c1 [crystalline sparsentan, 2-[4-[(2-butyl-4-oxo-1,3-diazaspiro[4.4]non-1-en-3-yl)methyl]-2-(ethoxymethyl)phenyl]-N-(4,5-dimethyl-1,2-oxazol-3-yl)benzenesulfonamide]
